The test deals with T1, human OTOP1 (hOTOP1) (Homo sapiens, UniProt Q7RTM1).
T1 construct: expressed in transfected cells; host or cells: HEK-293 (CRL-1573, ATCC)
T1 sequence (Q7RTM1 1-612): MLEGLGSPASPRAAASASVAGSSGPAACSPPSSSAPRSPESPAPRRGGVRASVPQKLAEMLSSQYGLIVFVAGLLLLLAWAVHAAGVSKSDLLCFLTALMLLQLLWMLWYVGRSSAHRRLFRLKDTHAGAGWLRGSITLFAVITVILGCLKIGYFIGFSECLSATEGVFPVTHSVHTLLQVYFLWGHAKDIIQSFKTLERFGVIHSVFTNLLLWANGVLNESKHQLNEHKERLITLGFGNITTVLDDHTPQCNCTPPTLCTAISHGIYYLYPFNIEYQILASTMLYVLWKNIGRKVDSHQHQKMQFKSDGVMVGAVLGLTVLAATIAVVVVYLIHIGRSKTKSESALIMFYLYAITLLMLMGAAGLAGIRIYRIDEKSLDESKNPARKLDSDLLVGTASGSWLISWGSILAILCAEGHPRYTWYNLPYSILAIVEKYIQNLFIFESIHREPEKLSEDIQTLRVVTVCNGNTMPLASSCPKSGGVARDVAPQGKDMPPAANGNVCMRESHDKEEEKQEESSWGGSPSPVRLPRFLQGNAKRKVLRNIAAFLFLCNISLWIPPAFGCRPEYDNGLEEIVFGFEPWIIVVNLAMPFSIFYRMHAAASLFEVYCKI
The test is described as follows: Whole-cell patch-clamp, inhibition of currents, hOTOP1 in HEK-293 cells. Format: cell-based. Particulars: HEK293, 300 µM (saturating concentration of C11). From the text: The second series of compounds was again tested by whole-cell patch-clamp recording of DrOTOP1 expressed in HEK-293 cells. Of the 54 compounds tested, we identified 16 that inhibited DrOTOP1 acid-induced currents by over 25% (Fig. 2D and Supplementary Fig. 3E). […] The Hill coefficient of 1.52 indicated positive cooperativity and multiple binding sites, similar to C11. We next tested each of these compounds against mouse OTOP1 (mOTOP1) and human (Homo sapiens) OTOP1 (hOTOP1), which are among the closest related proteins in the mammalian proteome. […] For both compounds, we also determined whether there was any pH-dependence to their inhibitory effect by measuring dose-response curves over a range from pH 6.0, where sizable currents first appear, to pH 5.0. […]
Whole-cell patch-clamp recording was performed as previously described[6],[22],[25]. Recordings were made with an Axopatch 200B amplifier, digitized with a Digidata 1322a 16-bit data acquisition system, acquired with pClamp 8.2 and analyzed with Clampfit 10 (Molecular Devices). […]
All data are presented as mean ± SEM unless otherwise noted, and each data point represents an independent replicant. Inhibition of compounds was quantified as ((I2peak-I1)/(I2peak))*100, where I1 is the current immediately before wash-off and I2peak is the maximum recovered current (Supplementary Fig. 2). […]

Each structure is given as a SMILES string.

In turn, `O=C(/C(=N\O)c1ccccc1)c1ccccc1` [C11, benzil monoxime] gave an inhibition at 300 µM of approximately 24%.
